Values of other authors as cited in patent US5817628A, “Dynorphin a suppression of natural killer cell activity” (The Rockefeller University, priority 1992, dated 1998).

System: NK cells
Details: reported by other investigators

Row | Compound | effect on NK activity in vitro (literature)
1 | CN1CC[C@]23c4c5ccc(O)c4O[C@H]2[C@@H](O)C=C[C@H]3[C@H]1C5 [Morphine] | enhanced NK activity in one study
2 | CCC(=O)C(CC(C)N(C)C)(c1ccccc1)c1ccccc1 (stereo not shown) [methadone] | observed in vitro only at methadone concentrations many orders of magnitude higher than those observed during any clinical use of methadone
3 | Met-enkephalin | appears to enhance NK activity
4 | β-endorphin (YGGFMTSEKSQTPLVTLFKNAIIKNAYKKGE; Beta-endorphin; UniProt P01189 237-267, looked up) [endogenous opioid] | increases NK cell activity in vitro
